Assays:
Type in all cases: functional, cell-based
A549 = assay: Cytotoxicity was measured against neoplastic cultured A-549 cells of human lung carcinoma.
SK-MEL-28 = assay: Cytotoxicity was measured against neoplastic cultured MEL-28 cells of malign human melanoma.
P388 = assay: Cytotoxicity was measured against neoplastic cultured P-388 cells of murine leukemia.; conditions: Mus musculus
HT-29 = assay: Cytotoxicity was measured against neoplastic cultured HT-29 cells of human colon carcinoma.

Row | SMILES | IC50 (A549) [µM] | IC50 (SK-MEL-28) [µM] | IC50 (P388) [µM] | IC50 (HT-29) [µM]
1 | CC(C)=CCCc1ccc2c(c1)C(=O)C=CC2=O | 1 | 0.4 | 0.4 | 1
2 | CC(C)=CCCC1=CCC2=C(C1)C(=O)c1ccccc1C2=O | 17 | > 34 | 17 | > 34
3 | CC1=CCC[C@H]2[C@](C)(Cc3cc(O)ccc3O)[C@@H](C)CC[C@]12C [AVAROL] | 6 | 6 | 3.1 | 6
4 | CC(C)=CCCC1=CCC2=C(C1)C(=O)C(C)=CC2=O | 3.9 | 9.8 | 3.9 | 19.5
5 | CC(=O)Oc1cc(C)c(OC(C)=O)c2cc(CCC=C(C)C)ccc12 | 1.5 | 3.5 | 2.9 | 7.3
6 | CC(C)=CCCC1=CCc2c(O)cc(C)c(O)c2C1 | 3.8 | 19.4 | 3.8 | 19.4
7 | CC(=O)Oc1ccc(OC(C)=O)c2c1CC=C(CCC=C(C)C)C2 | 3.6 | 3.6 | 1.5 | 3.6
8 | O=C1C=CC(=O)c2ccccc21 [NAPHTHOQUINONE] | > 63.2 | > 63.2 | > 63.2 | > 63.2
9 | CC(=O)Oc1cc(C)c(OC(C)=O)c2c1CC=C(CCC=C(C)C)C2 | 2.9 | 14.6 | 2.9 | 14.6
10 | CC(C)=CCCC1=CCc2c(O)ccc(O)c2C1 | 4.9 | 4.9 | 2.1 | 4.9
11 | O=C1C=CC(=O)C=C1 [BENZOQUINONE] | 46.2 | 46.2 | 11.1 | 46.2
12 | CC1=CCC[C@H]2[C@](C)(CC3=CC(=O)C=CC3=O)[C@@H](C)CC[C@]12C [AVARONE] | 6 | 6 | 3.1 | 6
13 | CC(C)=CCCC1=CCC2C(=O)c3ccccc3C(=O)C2C1 (stereo not given) | 8.5 | > 34 | 8.5 | > 34
14 | CC(C)=CCCC1=CCC2=C(C1)C(=O)C=CC2=O | 2.1 | 2.1 | 1 | 2.1
15 | CC(C)=CCCc1ccc2c(c1)C(=O)C(C)=CC2=O | 3.9 | 9.8 | 3.9 | 19.6
